# Measured values: patent US8383136B2, “Micelle encapsulation of therapeutic agents” (Wisconsin Alumni Research Foundation, priority 2009, dated 2013)
# “And” between values parts separate entries of the source, which are not always exact repeats. Equal entries are not always repeated. “Also recorded” adds a separate entry of the source.
# How the values were obtained:
# [1] = % drug loading of PEG-b-PLA micelles (wt drug(s)/wt polymer); type: physicochemical; settings: all drugs of the SDM or MDM together, PEG-b-PLA (4.2K:1.9K) micelles
# Method: Drug(s) to polymer w/w percent was calculated for SDM and MDM. PEG-b-PLA micelles were freeze dried, weighed and the amount of drug(s) in the freeze dried sample was quantified by HPLC. The drug w/w percent was calculated as the mass of the drug(s) to the mass of polymer in the freeze dried sample multiplied by 100.
# [2] = Dynamic light scattering size of SDM and MDM; type: physicochemical; settings: DLS, drug-loaded SDM or MDM
# Method: The drug-loaded micellar solutions were diluted 20 times with DD H2O and the samples was equilibrated for 2 min at 25° C. before the measurements. […] The hydrodynamic diameter of PEG-b-PLA micelles was calculated based on the Stokes-Einstein equation. Correlation function was curve fitted by cumulant method to calculate mean size and polydispersion index (PDI). All measurements were repeated three times, and volume-weighted particle sizes were presented as the average diameter with standard deviation.
# [3] = Physical stability / drug loss from PEG-b-PLA micelles after 24 hours (turbidity, HPLC); type: physicochemical
# Method: Turbidity measurements were used to evaluate the physical stability of drug-loaded PEG-b-PLA micelles. A CARY 50 BIO UV-Visible spectrophotometer equipped with dip probe was used to measure turbidity. Micellar solutions were diluted six times, for a final concentration of PEG-b-PLA of 5 mg/mL, with DD H2O and filtered through 0.45 μm filter. […] Each measurement was performed in triplicate.
# [4] = In vitro drug release from PEG-b-PLA micelles (dialysis method); type: physicochemical; settings: SDM, dialysis; listed as PTX
# Method: (§1) SDMs or MDMs were prepared and characterized as described above. Post micelle preparation each sample was diluted with DD H2O, to yield about 0.10 mg/mL of each drug. A volume of 2.5 mL of the prepared sample was loaded into a 3 mL Slide-A-Lyzer® (Thermo Scientific Inc.) dialysis cassette with a MWCO of 20,000 g/mol. Four cassettes were used in each experiment. The cassettes were placed in 2.0 L of buffer which was changed every 3 hours to ensure sink conditions for drug(s) and polymer. A sample of 100 μL was drawn from each cassette at various sampling time intervals and then replaced with 100 μL of fresh buffer. […] The amount of drug(s) in each sample was quantified by HPLC as described above.
# Statistical analysis was performed using one-way ANOVA at 5% significance level combined with Tukey's Multiple Comparison Test or t-test at 5% significance level. Curve-fitting analysis using one phase exponential association was used to calculate the half-life (t1/2) of drug in in vitro drug release experiments. Both analyses were performed using GraphPad Prism version 5.00 for Windows, Graph-Pad Software, San Diego Calif. USA, www.graphpad.com.
# as §1, with “Post-micelle preparation,” for “Post micelle preparation”, “yield samples of” for “yield”, “reverse phase HPLC.” for “HPLC as described above.”
# [5] = system: A549 human non-small cell lung cancer cells; experiment: In vitro cytotoxicity, resazurin assay, and combination index; type: cell-based; settings: drug(s) in SDM or MDM, 72 hours, unit inferred, PTX/17-AAG 4.7:1, RAP/17-AAG 1:1, RAP/PTX 1:1, RAP/PTX/17-AAG 1:5:1, read-out: IC50
# Method: (§2) MCF-7 human breast cancer cells were cultured in DMEM medium while 4T1 murine breast cancer cells, A549 human non-small cell lung cancer cells, and LS180 human colon cancer cells were cultured in RPMI1640 medium. Both media were supplemented with 10% fetal bovine serum (FBS) with antibiotics under 5% CO2 and 37° C. in an incubator. […] Free drugs were dissolved in DMSO, and drug-loaded PEG-b-PLA micelles were in deionized water. The samples were diluted with cell culture media to make 0.10, 1.0, 10, 100 and 1000 nM in 96 well plates. […] The metabolic conversion of resazurin dye by each viable cancer cell was quantified using a fluorescence cell plate reader (SpectraMax M2, Molecular Devices, USA) to estimate cell viability. […] IC50 values of free drugs and drug-loaded PEG-b-PLA micelles were calculated based on median-effect equation using Compusyn software (ver. 1.0).
# (§3) CI values were obtained at IC50 values for 2- or 3-drug combinations. CI<1, C=1, and CI>1 were used as criteria to determine whether 2- or 3-drug combinations are synergistic, additive, and antagonistic, respectively (FIGS. 13-20).
# [6] = system: MCF-7 human breast cancer cells; experiment: as above; type: cell-based; settings: Homo sapiens, MCF7, 72 h; read-out: IC50
# Method: as §2, §3
# [7] = system: 4T1 murine breast cancer cells; experiment: as above; type: cell-based; settings: drug(s) in SDM or MDM, 72 hours, unit inferred, PTX/17-AAG 4.7:1, RAP/17-AAG 1:1, RAP/PTX 1:1, RAP/PTX/17-AAG 1:5:1, read-out: IC50
# Method: as §2, with “The samples were diluted with cell culture media to make 0.10, 1.0, 10, 100 and 1000 nM in 96 well plates.” left out
# as §3
# [8] = Acute toxicity experiments in FVB female albino mice; settings: PEG-b-PLA micelles, 3 IV injections days 0, 4, 8; paclitaxel 60, 17-AAG 60, rapamycin 30 mg/kg
# Method: Briefly, acute toxicity experiments were carried out in FVB female albino mice with 3 IV injections on days 0, 4, and 8, measuring body weights and monitoring survival over 12 days (FIG. 21).
# [9] = without micelles; cited from earlier work
# [10] = system: H-358 human non-small-cell lung cancer xenografts; settings: combined with 17-AAG; cited from earlier work
# [11] = Drug solubilization by PEG-b-PLA micelles (drug level in water, reverse phase HPLC); settings: analyte paclitaxel, SDM or MDM, PEG-b-PLA (4.2K:1.9K) micelles
# Method: The drug-polymer mixture was dissolved in 0.50 mL acetonitrile (ACN). The ACN was removed at 60° C. under reduced pressure on a rotary evaporator resulting in the formation of a homogenous film, The drug-polymer film was rehydrated with 0.50 mL of DD H2O at 60° C. with gentle agitation resulting in a clear solution of drug-loaded PEG-b-PLA micelles. The micellar solution was filtered using a 0.45 μm filter, and the micelles were characterized in terms of size and loading by Dynamic Light Scattering (DLS) and HPLC respectively.
# MDMS were prepared similarly to the SDMs by mixing 2.0 mg of each drug with 15 mg of the polymer. The procedure for the preparation and characterization of these micelles was identical to the SDMs.
# The content of drug loaded in PEG-b-PLA micelles was quantified by reverse phase HPLC. The HPLC system used for quantifying was a Shimadzu prominence HPLC system (Shimadzu, JP), consisting of a LC-20AT pump, SIL-20AC HT autosampler, CTO-20AC column oven and a SPD-M20A diode array detector. A sample of 10 μL was injected into a Zorbax SB-C8 Rapid Resolution cartridge (4.6×75 mm, 3.5 micron, Agilent). The column temperature was maintained at 40° C. throughout the run. Two HPLC methods were developed to quantify the amount of the drug(s) loaded in PEG-b-PLA micelles.
# The mobile phase was an isocratic mixture of 45% ACN and 54% aqueous phase containing 0.1% phosphoric acid and 1% methanol in DD H2O.
# The mobile phase was a gradient mixture of ACN and aqueous phase containing 0.1% phosphoric acid and 1% methanol in DD H2O. […] With both HPLC methods samples were injected twice and reproducible and rapid separation of the drugs was achieved.
# Mn of PEG and PLA of PEG-b-PLA was 4,200 and 1,900 g/mol, respectively (APC Inc., UK). ACN was removed by heating at 60° C. and reduced pressure. The resultant dry polymer film containing anti-cancer agent(s) was dissolved by addition of water (0.50 mL) at 60° C. with gentle agitation.
# The resultant dry PEG-b-PLA film containing drugs was dissolved by the addition of water (0.50 mL) at 60° C. with gentle agitation.
# [12] = analyte paclitaxel, PEG-b-PLA micelles
smiles,measurement,setting,value
CC(=O)O[C@H]1C(=O)[C@@]2(C)[C@H]([C@H](OC(=O)c3ccccc3)[C@]3(O)C[C@H](OC(=O)[C@H](O)[C@@H](NC(=O)c4ccccc4)c4ccccc4)C(C)=C1C3(C)C)[C@]1(OC(C)=O)CO[C@@H]1C[C@@H]2O [Paclitaxel],% drug loading (wt. drug(s)/wt. polymer),[1],11.8 ± 1.1% and 10.3 ± 0.9%
same,% drug loading (wt. drug(s)/wt. polymer),[1]; listed as PTX,10.3%
same,PEG-b-PLA micelle diameter,[2],38.8 ± 0.6 nm
same,drug precipitated at 24 hours,"[3]; SDM, HPLC data",approximately 84%
same,% w/w drug(s) left @ 24 hr,[3]; [12],16.2 ± 1.0 % w/w
same,initial drug level in water,[3]; [12],3.54 ± 0.32 mg/mL
same,drug level @ 24 hr in water,"[3]; analyte paclitaxel, PEG-b-PLA micelles, 24 hr",570 ± 70 µg/mL
same,time the micelles were physically stable,"[3]; turbidity, ambient temperature",approximately 6 hours
same,behaviour of PTX during the release test,[4],Rapid precipitation; also recorded: precipitated during release
same,IC50,[5],397 ± 59 nM
same,IC50,[6],226 ± 32 nM
same,IC50,[7],11200 ± 4160 nM
same,acute toxicity,[8],low
same,solubility of paclitaxel in water,[9],approximately 1 μg/mL
same,enhancement of PTX cytotoxicity,[10],5-22 fold
same,drug level in water,[11],3540 ± 320 µg/mL
same,drug level in water,[11]; listed as PTX,3500 µg/mL
